Legend:
[1] = target: T1, K-Ras G12D (Homo sapiens, UniProt P01116, G12D); assay: HTRF resonance energy transfer assay, K-Ras G12D / SOS1 interaction; assay type: biochemical; details: HTRF assay of Example 5; read-out: IC50 against K-Ras G12D
T1 construct: made in house; host or cells: E. coli BL21 (DE3)
Summary of the method: (§1)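 Read-out: HTRF 665/620 nm ratio (excitation 337 nm) after roughly 10 min or longer incubation, used to derive IC50. Donor anti-GST-Eu on GST-K-Ras; acceptor anti-6His-XL665 on His-hSOS1. Duplicate dose series from 10 μM down to 0.01 μM.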

[2] = target: T2, K-Ras WT (Homo sapiens, UniProt P01116); assay: HTRF resonance energy transfer assay, K-Ras WT / SOS1 interaction; assay type: biochemical; details: HTRF assay of Example 5; read-out: IC50 against K-Ras WT
T2 construct: made in house; host or cells: E. coli BL21 (DE3)
Summary of the method: as §1

[3] = target: T3, K-Ras G12V (Homo sapiens, UniProt P01116, G12V); assay: HTRF resonance energy transfer assay, K-Ras G12V / SOS1 interaction; assay type: biochemical; details: HTRF assay of Example 5; read-out: IC50 against K-Ras G12V
T3 construct: made in house; host or cells: E. coli BL21 (DE3)
Summary of the method: as §1

[4] = target: T4, K-Ras G12S (Homo sapiens, UniProt P01116, G12S); assay: HTRF resonance energy transfer assay, K-Ras G12S / SOS1 interaction; assay type: biochemical; details: HTRF assay of Example 5; read-out: IC50 against K-Ras G12S
T4 construct: made in house; host or cells: E. coli BL21 (DE3)
Summary of the method: as §1

[5] = tested on: SW620 cells; assay: Ras cellular assay, growth of cells with K-Ras G12V mutation (CellTiter-Glo); assay type: cell-based; details: Homo sapiens, SW-620; cell growth, Example 9, G12V mutation; read-out: IC50 against SW620 cells
Method: For example, this assay can be also used to assess a selective growth inhibition of a mutant Ras protein relative to a wildtype, or relative to a different mutant Ras protein.
SW620 (ATCC CCL-227) and Capan-1 (ATCC HTB-79) cell lines comprise a G12V mutation and can be used to assess Ras cellular signaling in vitro, e.g., in response to the compounds herein. SW620 culture medium is prepared with RPMI-1640 and 10% heat-inactivated FBS. Capan-1 culture medium is prepared with RPMI-1640 and 10% heat-inactivated FBS. A CellTiter-Glo (CTG) luminescent based assay (Promega) is used to assess growth of the cells, as a measurement of the ability of the compounds herein to inhibit Ras signaling in the cells. The cells (e.g., 800 per well) are seeded in their respective culture medium in standard tissue culture-treated 384-well format plates (Falcon #08-772-116) or ultra-low attachment surface 384-well format plates (S-Bio #MS-9384WZ). The day after plating, cells are treated with a dilution series (e.g., a 10 point 3-fold dilution series) of the compounds herein (e.g., approximately 40 μL final volume per well). Cell viability can be monitored (e.g., approximately 6 days later) according to the manufacturer's recommended instructions, where the CellTiter-Glo reagent is added (e.g., approximately 10 μL), vigorously mixed, covered, and placed on a plate shaker (e.g., approximately for 20 min) to ensure sufficient cell lysis prior to assessment of luminescent signal. The IC50 values are determined using the four parameter fit. The resulting IC50 value is a measurement of the ability of the compounds herein to reduce cell growth of Ras-driven cells (e.g., tumor cell lines) in vitro and/or in vivo.

T2 sequence (P01116 1-188 isoform P01116-2): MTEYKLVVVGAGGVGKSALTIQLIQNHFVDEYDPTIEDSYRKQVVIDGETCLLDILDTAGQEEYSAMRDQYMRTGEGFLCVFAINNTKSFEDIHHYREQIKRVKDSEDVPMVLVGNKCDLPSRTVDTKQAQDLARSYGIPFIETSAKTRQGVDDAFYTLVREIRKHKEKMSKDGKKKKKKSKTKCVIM
T4 sequence (P01116 1-188 isoform P01116-2 G12S): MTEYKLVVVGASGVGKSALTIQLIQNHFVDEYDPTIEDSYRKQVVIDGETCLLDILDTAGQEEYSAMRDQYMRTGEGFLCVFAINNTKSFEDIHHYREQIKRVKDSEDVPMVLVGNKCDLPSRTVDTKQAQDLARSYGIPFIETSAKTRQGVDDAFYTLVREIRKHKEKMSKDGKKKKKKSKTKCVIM
T3 sequence (P01116 1-188 isoform P01116-2 G12V): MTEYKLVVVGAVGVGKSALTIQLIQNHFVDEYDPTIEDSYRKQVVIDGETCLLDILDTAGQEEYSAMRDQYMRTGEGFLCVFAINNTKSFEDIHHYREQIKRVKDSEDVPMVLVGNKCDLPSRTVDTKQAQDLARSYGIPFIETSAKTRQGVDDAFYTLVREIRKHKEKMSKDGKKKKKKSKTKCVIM
T1 sequence (P01116 1-188 isoform P01116-2 G12D): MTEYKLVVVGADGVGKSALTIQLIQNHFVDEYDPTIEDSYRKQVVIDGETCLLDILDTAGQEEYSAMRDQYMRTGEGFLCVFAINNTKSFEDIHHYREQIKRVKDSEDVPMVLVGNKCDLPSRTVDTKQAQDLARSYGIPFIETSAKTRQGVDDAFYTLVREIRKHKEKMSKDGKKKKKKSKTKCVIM

Compound | IC50 [1] [nM] | IC50 [2] [nM] | IC50 [3] [nM] | IC50 [4] [nM] | IC50 [5] [nM]
COC(C)[C@H]1COc2c(Cl)c(-c3ccc(F)c4sc(N)c(C#N)c34)c(F)c3nc(OC[C@@]45CCCN4C[C@H](F)C5)nc(c23)N1CC(F)F (stereo partly drawn) [Compound 630, 2-amino-4-((5R)-8-chloro-4-(2,2-difluoroethyl)-10-fluoro-2-(((2R,7aS)-2-fluorotetrahydro-1H-pyrrolizin-7a(5H)-yl)methoxy)-5-(1-methoxyethyl)-5,6-dihydro-4H-[1,4]oxazepino[5,6,7-de]quinazolin-9-yl)-7-fluorobenzo[b]thiophene-3-carbonitrile] | < 100 | < 100 | < 100 | < 100 | < 5000
CC(O)C1COc2c(Cl)c(-c3ccc(F)c4sc(N)c(C#N)c34)c(F)c3nc(OC[C@@]45CCCN4C[C@H](F)C5)nc(c23)N1CC1CCNC1 (stereo partly drawn) [Compound 632, 2-amino-4-(8-chloro-10-fluoro-2-(((2R,7aS)-2-fluorotetrahydro-1H-pyrrolizin-7a(5H)-yl)methoxy)-5-(1-hydroxyethyl)-4-(pyrrolidin-3-ylmethyl)-5,6-dihydro-4H-[1,4]oxazepino[5,6,7-de]quinazolin-9-yl)-7-fluorobenzo[b]thiophene-3-carbonitrile] | < 100 | < 100 | < 100 | < 100 | < 5000
CN(C)C1CCC(N2CCOc3c(Cl)c(-c4ccc(F)c5sc(N)c(C#N)c45)c(F)c4nc(OC[C@@]56CCCN5C[C@H](F)C6)nc2c34)C1 (stereo partly drawn) [Compound 677, 2-amino-4-(8-chloro-4-(3-(dimethylamino)cyclopentyl)-10-fluoro-2-(((2R,7aS)-2-fluorotetrahydro-1H-pyrrolizin-7a(5H)-yl)methoxy)-5,6-dihydro-4H-[1,4]oxazepino[5,6,7-de]quinazolin-9-yl)-7-fluorobenzo[b]thiophene-3-carbonitrile] | < 100 | < 100 | < 100 | < 100 | < 5000
CN(CCCN1c2nc(OC[C@@]34CCCN3C[C@H](F)C4)nc3c(F)c(-c4ccc(F)c5sc(N)c(C#N)c45)c(Cl)c(c23)OCC1CC#N)C(=O)[C@H]1CN1 (stereo partly drawn) [Compound 709, (2R)—N-(3-(9-(2-amino-3-cyano-7-fluorobenzo[b]thiophen-4-yl)-8-chloro-5-(cyanomethyl)-10-fluoro-2-(((2R,7aS)-2-fluorotetrahydro-1H-pyrrolizin-7a(5H)-yl)methoxy)-5,6-dihydro-4H-[1,4]oxazepino[5,6,7-de]quinazolin-4-yl)propyl)-N-methylaziridine-2-carboxamide] | < 100 | < 100 | < 100 | < 100 | < 5000
CC(C)[C@H](N)C(=O)N1CCC(N2C[C@H](C)Oc3c(Cl)c(-c4ccc(F)c5sc(N)c(C#N)c45)c(F)c4nc(OC[C@@]56CCCN5C[C@H](F)C6)nc2c34)C1 (stereo partly drawn) [Compound 714, 4-((6S)-4-(1-(L-valyl)pyrrolidin-3-yl)-8-chloro-10-fluoro-2-(((2R,7aS)-2-fluorotetrahydro-1H-pyrrolizin-7a(5H)-yl)methoxy)-6-methyl-5,6-dihydro-4H-[1,4]oxazepino[5,6,7-de]quinazolin-9-yl)-2-amino-7-fluorobenzo[b]thiophene-3-carbonitrile] | < 100 | < 100 | < 100 | < 100 | < 5000
N#Cc1c(N)sc2c(F)ccc(-c3c(Cl)c4c5c(nc(OC[C@@]67CCCN6C[C@H](F)C7)nc5c3F)N(Cc3ccnn3CC(F)F)CCO4)c12 [Compound 720, 2-amino-4-(8-chloro-4-((1-(2,2-difluoroethyl)-1H-pyrazol-5-yl)methyl)-10-fluoro-2-(((2R,7aS)-2-fluorotetrahydro-1H-pyrrolizin-7a(5H)-yl)methoxy)-5,6-dihydro-4H-[1,4]oxazepino[5,6,7-de]quinazolin-9-yl)-7-fluorobenzo[b]thiophene-3-carbonitrile] | < 100 | < 100 | < 100 | < 100 | < 5000
